# Reference: US10907219B2, “Compositions and methods for controlling cellular function” (STC.UNM, priority 2014, dated 2021)
# Entries after “also recorded” stand apart in the source; their conditions may differ.
# How the values were obtained:
# [1] = Photo-cleavage (uncaging) of caged ABA (HPLC); assay type: physicochemical; details: for photo-cleavage by 365 nm light / photo-cleavage by 405 nm light: 10 μM in DMSO; for formation of 2-trans ABA isomer on irradiation: 365 nm photo-cleavage condition
# Experimental: HPLC analysis: Reversed-phase HPLC was performed on an ACCLAIM 120 (4.6×100 mm) C18 column (Thermo Fisher Scientific, Waltham, Mass.) with an ULTIMATE 3000 pump system, including a Variable Wavelength Detector 3100, Degasser 1210, and Autosampler SPS 3000 (Thermo Fisher Scientific, Waltham, Mass.). A mixture of water and acetonitrile containing 0.1% TFA was used as the eluent. Absorbance at 250 nm was used to monitor the elution of the molecules. The method used an increase in acetonitrile from 5% to 95% over 15 minutes to elute the molecules at a flow rate of 0.7 mL/min. The peaks for the molecules were integrated by using Chromeleon software (Thermo Fisher Scientific, Waltham, Mass.). The molar absorptivity of both free and caged ABA at 250 nm were measured, which was used to calculate the concentration of each species from the intensity of absorbance at 250 nm. The relative concentration of each compound was used to calculate the percent concentration of free ABA relative to the concentration of total ABA species (both caged and uncaged).
# Photo-irradiation: Irradiation at 365 nm was performed with an Axio Observer (Carl Zeiss AG, Oberkochen, Germany) microscope with an HBO103 W/2 mercury arc lamp (Carl Zeiss AG, Oberkochen, Germany). Irradiation was performed by using a DAPI filter (Carl Zeiss AG, Oberkochen, Germany), set with peak excitation at 365 nm (power density: 23 mW cm^2) and a spectral width of 50 nm. No objective lens was used for whole-well irradiation, which created an area of illumination that nearly completely covered one well of a 24-well plate. Light was transmitted through the bottom of the well of polystyrene plate. Irradiation at 405 nm was performed by using an adjustable focus violet purple laser pointer (LazerPoint SKU 0733579), with an excitation wavelength of 405 nm and 1000 mW intensity positioned 8 cm above the bottom of either a 96-well or 24-well plate and irradiated through the polystyrene lid. All samples for HPLC analysis were irradiated in DMSO to prevent evaporation of solvent and changes in sample concentration. Irradiation of cell cultures was performed in 24-well plates containing culture medium (500 μL).
# [2] = system: CHO cells transfected with ABA-inducible luciferase constructs; test: ABA-inducible luciferase assay; assay type: cell-based; details: for stability in cell culture: 12 or 24 h, luciferase assay
# Experimental: The cellular stability of ABA-DMNB was explored further using a more sensitive and quantitative luciferase assay system, which employs an inducible luciferase construct (FIG. 21A). CHO cells were transfected with the ABA-inducible luciferase constructs for 24 hours and then 10 μM of ABA-DMNB was added and incubated in dark for 12 or 24 hours. Cells were then harvested and analyzed by using the luciferase assay.
# Cell culture and transfection: CHO cells and HEK 293T EGFP reporter cells (provided by Dr. Gerald R. Crabtree) were cultured in Dulbecco's modified Eagle's medium (DMEM; GIBCO, Life Technologies, Carlsbad, Calif.) with 10% FBS (Atlanta Biologicals, Inc., Norcross, Ga.), 1×GlutaMAX (GIBCO, Life Technologies, Carlsbad, Calif.), and 1× penicillin/streptomycin (Pen/Strep; GIBCO, Life Technologies, Carlsbad, Calif.). 15,000-50,000 ells were plated in a 24-well or 8-well plate for 24 hours before transfection. DNA constructs (0.1 μg-0.5 μg) were added to 50× (v/w) Opti-MEM (GIBCO, Life Technologies, Carlsbad, Calif.), and then 3× (v/w) PEI (Polysciences, Inc., Warrington, Pa.) was mixed with the DNA. The mixture was incubated for 20 minutes at room temperature before adding it to cell cultures. The cells were grown for one day after transfection before experiments were performed.
# Luciferase assay: Cells from 24-well plates were washed with PBS and lysed with Reporter lysis buffer (100 μL; Promega Corp., Madison, Wis.) by incubation and gentle shaking at room temperature for 10 minutes after a freeze/thaw cycle. Cell lysates were centrifuged at 15,000 rpm in an Eppendorf 5424 Centrifuge with lysate used for the luciferase assay (25 μL). Luciferase assay reagent (100 μL, 5 mg luciferin (Gold Biotechnology, Inc., St. Louis, Mo.) and coenzyme A (7 mg; Sigma-Aldrich, St. Louis, Mo.) in Luciferase Assay Buffer (33 mL, 20 mM tricine, 1.07 mM (MgCO3)4Mg(OH)2.5 H2O, 2.67 mM MgSO4, 0.1 mM EDTA, 33.3 mM dithiothreitol, and 0.53 mM ATP in water) was added to lysates. Luciferase assay reagent was added through the auto-injector of a GLOMAX-Multi Detection System (Promega Corp., Madison, Wis.), and the signal was detected by the instrument with a 1.5 s delay and 0.5 s integration time. All experiments were conducted in triplicate.
# [3] = system: EGFP-PYL and NES-ABI in CHO cells; test: Light-induced EGFP-PYL nuclear export (fixed cells); assay type: cell-based; details: for subcellular location of EGFP-PYL: CHO cells; for reversibility of EGFP nuclear exportation: washed with fresh media
# Experimental: The ability to use light to control protein translocation through ABA-DMNB uncaging was evaluated next. Plasmids expressing EGFP-tagged PYL and nuclear export sequence (NES) peptide-linked ABI (FIG. 22A) were transfected into CHO cells. The transfected cells were then either treated or not treated with ABA, ABA-DMNB, or ABA-DMNB and irradiated for 60 seconds. Fluorescence microscopy analysis was used to determine subcellular locations of EGFP fusion proteins. […] Furthermore, the observed nuclear export of EGFP fusion protein can be readily reversed by washing away the uncaged ABA using fresh media. Thus, protein translocation can be induced by light through photo-uncaged ABA and can be readily reversed.
# Slide preparation: Cells were grown on glass coverslips in 24-well plates. The coverslips were washed with phosphate-buffered saline (PBS) and fixed with 4% paraformaldehyde (PFA, 300 μL, prepared in PBS) at room temperature for 20 min. The cells were then washed twice with PBS and incubated with 1×DAPI in the dark at the room temperature for 5 min. After a final wash with PBS, the coverslips were mounted on a glass slide with VECTASHIELD (Vector Laboratories, Inc., Burlingame, Calif.) mounting media and allowed to stand for two hours in the dark before imaging.
# Fluorescence microscopy imaging: Slides were imaged with an Axio Observer (Carl Zeiss AG, Oberkochen, Germany) microscope or with am LSM 510 Meta confocal microscope (Carl Zeiss AG, Oberkochen, Germany) mounted on an AxioObserver inverted microscope with a 63× oil objective. Images were taken with DAPI and GFP channels.
# Statistical analysis of cell population: Cell were categorized as displaying nuclear export of EGFP when the fluorescent intensity of the nucleus was less than 60% of the intensity of the cytoplasm. […] Cells were counted from three separate experiments, with N>50 for each experiment.
SMILES,photo-cleavage by 365 nm light [1],photo-cleavage by 405 nm light [1],irradiation time to complete cleavage ([1]; 405 nm light) [min],formation of isomerized ABA on irradiation ([1]; 405 nm uncaging),"stability in cell culture ([2]; 10 μM, dark)","EGFP-PYL nuclear export ([3]; 10 μM, 405 nm light irradiation, fixed CHO cells)","irradiation time after which free ABA is regenerated ([1]; 10 μM and 100 μM, 365 nm UV light) [s]","irradiation time to regenerate free ABA ([1]; 100 μM, 365 nm light) [min]",formation of 2-trans ABA isomer on irradiation [1],"luciferase expression ([2]; 10 μM, dark, 12 hours)","luciferase expression ([2]; 10 μM, dark, 24 hours)",subcellular location of EGFP-PYL ([3]; 365 nm UV irradiation 60 seconds),reversibility of EGFP nuclear exportation ([3]; after UV irradiation),subcellular location of EGFP-PYL ([3]; not irradiated),"subcellular location of EGFP-PYL ([3]; not irradiated, listed as ABADMNB)","luciferase expression ([2]; not irradiated, twelve hours after addition)",reversibility of EGFP nuclear exportation ([3]; not irradiated)
CCN(CC)c1ccc2c(COC(=O)/C=C(C)\C=C\[C@@]3(O)C(C)=CC(=O)CC3(C)C)cc(=O)oc2c1 [ABA-DEACM],cannot be cleaved effectively under 365 nm light; also recorded: cannot be cleaved efficiently by 365 nm light,cleaved rapidly to give ABA within a few minutes,≤ 4,isomerized ABA was also produced,stable chemically and in cell culture,ability to induce EGFP-PYL nuclear export,,,,,,,,,,,
COc1cc(COC(=O)/C=C(C)\C=C\[C@@]2(O)C(C)=CC(=O)CC2(C)C)c([N+](=O)[O-])cc1OC [ABA-DMNB],rapidly regenerated from the photo-uncaging of ABA-DMNB within a min,cannot efficiently uncage,,,relatively stable under the cell culture condition,,120,≤ 2,near equal amount,very little luciferase expression,only a minimal level of luciferase was induced,exported out of the nucleus; also recorded: markedly decreased intensities of EGFP in the nuclei within 15 minutes,reversed following three washes (within 30 minutes),EGFP distribution throughout the whole cells,distributed throughout the cell,,
"CC1=CC(=O)CC(C)(C)C1(O)/C=C/C(C)=C\C(=O)O (stereo not shown) [ABA, abscisic acid, reference compound]",,,,,,,,,very little 2-trans isomer was produced,,,,,exported out of the nucleus; also recorded: markedly decreased intensities of EGFP in the nuclei within 15 minutes,,induced luciferase expression,reversed following three washes (within 30 minutes)
